Laboratory results published in ChEMBL document CHEMBL5346900, “Treatment of allergy: Overview of synthetic anti-allergy small molecules in medicinal chemistry” (Eur J Med Chem, 2023).

What was measured:
Leukotriene C4 synthase = target: T1, Leukotriene C4 synthase (Homo sapiens, UniProt Q16873); test: Inhibition of LTC4 (unknown origin)
T1 sequence (Q16873 whole entry): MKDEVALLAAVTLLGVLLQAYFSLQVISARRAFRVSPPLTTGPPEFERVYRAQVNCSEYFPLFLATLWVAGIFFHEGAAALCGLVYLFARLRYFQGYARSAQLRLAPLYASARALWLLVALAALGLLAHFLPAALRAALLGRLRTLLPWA

[1] = target: T2, Cysteinyl leukotriene receptor 1 (Cavia porcellus, UniProt Q2NNR5); test: Inhibition of guinea pig leukotriene D4
T2 sequence (Q2NNR5 whole entry): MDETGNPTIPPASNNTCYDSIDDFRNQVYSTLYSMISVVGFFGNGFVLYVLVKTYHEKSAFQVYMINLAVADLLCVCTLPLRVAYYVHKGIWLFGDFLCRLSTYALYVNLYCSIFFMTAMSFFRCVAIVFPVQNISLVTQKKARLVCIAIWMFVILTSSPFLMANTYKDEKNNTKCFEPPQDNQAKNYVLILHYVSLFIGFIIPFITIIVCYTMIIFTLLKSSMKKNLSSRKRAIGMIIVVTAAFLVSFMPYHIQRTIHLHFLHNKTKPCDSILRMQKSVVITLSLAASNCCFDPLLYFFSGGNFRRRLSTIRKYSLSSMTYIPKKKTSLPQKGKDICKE

Histamine H4 receptor = Histamine H4 receptor (Homo sapiens, UniProt Q9H3N8); test: Binding affinity to histamine H4 receptor (unknown origin) assessed as inhibition constant
[2] = Half life in Sprague-Dawley rat at 3 mg/kg, iv measured by LC/MS analysis; type: ADME, organism-based; conditions: in vivo

Row | IC50 (Leukotriene C4 synthase) [nM] | Ki (Histamine H4 receptor) [nM] | Structure (SMILES) | other results
1 | 2 |  | CCOC(=O)Cc1csc(NC(=S)NC(C)c2cccc3ccccc23)n1 (configuration not stated) | 
2 |  |  | Cn1nccc1-c1ccc(Sc2ccc(C3(C(N)=O)CCOCC3)cc2)cc1 | IC50 [1]: 229 nM
3 |  | 8.4 | Cc1cc(C)c2nc(-c3cnc(NCCCC4CCN(C)CC4)nc3C)[nH]c2c1 [TOREFORANT] | 
4 | 5 |  | Cc1ccc(NC(=S)NC(C)c2cccc3ccccc23)nc1 (configuration not stated) | 
5 |  | 4.8 | CN1CCN(c2cc(-c3ccc(Cl)cc3)nc(N)n2)CC1 | 
6 |  | 4.9 | O=C(c1cc2ccccc2[nH]1)N1CCNCC1 | 
7 | 5000 |  | S=C(NCCc1c[nH]c2ccccc12)Nc1ccc(Cl)cn1 | 
8 |  |  | COC1(c2cc(F)cc(OCc3ccc4c(ccc(=O)n4C)c3)c2)CCOCC1 [ZD-2138] | IC50 [1]: 300 nM
9 |  | 27 | CN1CCN(C(=O)c2nc3cc(Cl)ccc3[nH]2)CC1 | 
10 |  |  | CN1CCN(C(=O)c2cc3cc(Cl)ccc3[nH]2)CC1 [JNJ-7777120] | half-life [2]: 48 min
11 | 5000 |  | Oc1ccc(CCNC(=S)Nc2ccc(Br)cn2)cc1 | 
12 | 1600 |  | Cc1cccc(NC(=S)NC(C)c2cccc3ccccc23)n1 (configuration not stated) | 
